The values below come from publication PMC3781034, “A Small-Animal Pharmacokinetic/Pharmacodynamic PET Study of Central Serotonin 1A Receptor Occupancy by a Potential Therapeutic Agent for Overactive Bladder” (PLoS ONE, 2013).

Assay [1] concerns the target T1, 5-HT1A receptors (Rattus norvegicus, UniProt P19327).
T1 construct: occupancy of 5-HT1A receptors in living Sprague-Dawley rat brains; from tissue; host or cells: living Sprague-Dawley rat brain (medial prefrontal cortex, dorsal raphe nucleus), in vivo PET
T1 sequence (P19327 1-422): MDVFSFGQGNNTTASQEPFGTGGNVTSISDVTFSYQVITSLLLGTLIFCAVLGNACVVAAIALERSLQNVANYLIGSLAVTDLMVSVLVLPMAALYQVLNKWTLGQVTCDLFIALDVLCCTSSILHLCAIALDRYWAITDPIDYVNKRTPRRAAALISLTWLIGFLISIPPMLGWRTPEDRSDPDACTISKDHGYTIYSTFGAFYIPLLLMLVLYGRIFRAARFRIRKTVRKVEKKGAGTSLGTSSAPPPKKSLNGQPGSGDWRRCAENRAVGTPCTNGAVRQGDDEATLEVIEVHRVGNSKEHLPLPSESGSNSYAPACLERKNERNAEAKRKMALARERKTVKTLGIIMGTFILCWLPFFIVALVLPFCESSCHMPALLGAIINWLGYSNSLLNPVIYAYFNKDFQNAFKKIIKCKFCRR
In words: PET 5-HT1A receptor occupancy, dose-response study ([11C]WAY-100635, Emax model). It is filed as in vivo, Sprague-Dawley rat. As to the method: All PET scans for rats were performed with a small animal-dedicated microPET FOCUS 220 system (Siemens Medical Solutions USA, Knoxville, TN, USA), which yields a 25.8 cm (transaxial) × 7.6 cm (axial) field of view (FOV) and a spatial resolution of 1.3 mm full width at half maximum at the center of FOV [8]. The rats were anesthetized with 1.5-2% isoflurane in air (2 L/min flow rate). Their body temperature was controlled using homeothermic controller and plate with a rectal probe, and their heart rates and arterial oxygen saturations were continuously measured by a pulse oximeter (CANL-425SVA; Med Associates, St. Albans, VT, USA). We also monitored respiration rates of these animals with a custom-made monitoring system (Nagano Electronics, Hitachinaka, Japan). A 20-min transmission scan for attenuation correction was performed using a spiraling ^68Ge-^68Ga point source. Subsequently, list-mode scans were carried out for 90 min. All list-mode data were sorted and Fourier rebinned into two-dimensional sinograms (frames: 4 × 1, 8 × 2, and 14 × 5 min). Images were thereafter reconstructed using two-dimensional filtered back-projection with a 0.5-mm Hanning filter. [^11C]-WAY-100635 was injected via the tail vein as a single bolus at the start of emission scanning. The injected dose of the radiotracer was 85.3 ± 28.6 MBq/rat (mean ± SD).
Anatomical regions of interest (ROIs) were placed on the medial prefrontal cortex (MPFC) and dorsal raphe nucleus (DRN) using PMOD® image software (PMOD Group, Zurich, Switzerland) with reference to the MRI template. Radioligand binding was examined by calculating the binding potential (BP ND; ratio at equilibrium of specifically-bound radioligand to that of nondisplaceable radioligand in tissue) based on a simplified reference tissue model (SRTM) using the cerebellar time-radioactivity curve as reference.
Occupancy of 5-HT1A receptors by E2110 was calculated using the following equation:
RO(%)=BPND,baseline−BPND,drug/BPND,baseline×100 (2)
where BP ND, baseline and BP ND, drug are estimated BP ND at baseline and following drug administration, respectively.
To examine the dose-RO relationship at a single time point, four male SD rats, which had undergone a baseline PET imaging in advance, were scanned with PET at 4 hours after being pretreated with 4 oral doses (0.3, 1, 3, 10 mg/kg) of E2110. In this assay, approximately 250 µL of blood samples were collected from the tail vein upon initiation of the scan for quantification of plasma concentration of E2110. We further examined RO at different time points after the drug administration by conducting PET scans of four male SD rats at 2, 4, 6 or 8 hours after pretreatment with a single oral dose of 1 mg/kg E2110. In addition to this series of PET assays for male rats, pilot PET scans for female rats (n = 3) were carried out at baseline and 4 hours after oral administration of 0.1 mg/kg E2110 to examine whether relationships between plasma concentration of E2110 and RO by this drug in the brain are consistent between two genders. In all experiments, scans for the same individual receiving E2110 were conducted more than 1 week apart.
As described in previous studies on 5-HT1A receptor antagonists the relationship between RO and plasma drug concentration at equilibrium can be described according to the law of mass action by the curvilinear function, based on the assumption that the free brain concentration is equal to free plasma concentration and the free fraction in plasma is not concentration-dependent:
RO(%)=ROmax/Kdapp+CpCp (3)
where ROmax is the maximum occupancy that can be induced by E2110, Kd ^app the apparent equilibrium constant, and Cp the plasma concentration of E2110. This model is analogous to the Emax model:
where Emax (ROmax) is the maximum effect (maximum RO) and EC50 (= Kd) is the E2110 plasma concentration required to produce 50% of Emax. […]

The test system of assay [2] is micturition interval. Nature of the assay: Superior colliculus lesion (SCL) model, cystometry. The assay is classed as in vivo, female SD rats. As to the method:
For lesioning of the brain to stimulate the micturition reflex, anesthesia was induced in female SD rats with 4% halothane and an N2O/O2 (2:1) gas mixture, it was maintained with 2% halothane, and each animal was mounted onto a stereotaxic apparatus. […] Catheter implantations and cystometric investigations were performed with the same methodologies as in the 5-HT1A receptor agonist-induced model. E2110 (0.1, 0.3 or 1 mg/kg) or vehicle was administered to four groups of eight conscious rats orally. The three micturition intervals were obtained and drug-induced changes in the micturition intervals were evaluated. In this assay, the post-administration micturition interval was defined as the average of the micturition intervals over an observation period between 0.5 and 1 hour after administration.
Data are expressed as mean ± standard error of mean (S.E.M). In the pharmacological study, the statistical significance of differences between the vehicle- and E2110-treated groups was tested using one-way analysis of variance (ANOVA) followed by Dunnett’s multiple comparison test. A probability (p) value of <0.05 (two-sided) was considered statistically significant. All statistical analyses were performed using the SAS software package version 8.1 or 8.2 (SAS Institute Japan Ltd., Tokyo, Japan).

The target in assay [3] is T2, rat 5-HT1A receptor (Rattus norvegicus, UniProt P19327).
T2 construct: from tissue; host or cells: rat hippocampus, membrane (microsomal) fraction
T2 sequence (P19327 1-422): T1 sequence (P19327 1-422)
Nature of the assay: Binding assay in rat hippocampal membrane fraction ([3H]MPPF). The following applies: rat hippocampal membranes, 0.3 nM [3H]MPPF, 25°C 60 min; read-out: Ki, 5-HT1A receptor affinity.
Protocol: Rat hippocampal samples were weighed, homogenized in 10-fold volume of 50 mM Tris-HCl (pH 7.4) on an ice bath, and centrifuged (50,000×g, 4°C, 20 min). The precipitate was further homogenized in a 10-fold volume of 50 mM Tris-HCl (pH 7.4) on an ice bath and centrifuged (50,000×g, 4°C, 20 min). The obtained precipitate was homogenized in 50 mM Tris-HCl (pH 7.4) to render a concentration of 100 mg tissue eq./mL. The obtained microsomal fraction was stored as a receptor stock solution at -80°C until use. […] MPPF in a total 1-ml reaction volume at 25°C for 60 min. The reaction was terminated, and bound radioactivity was separated from free radioligands by filtering and washing three times with 3 ml of 50 mM Tris-HCl (pH 7.4). The radioactivity content of the filters in 5 ml of liquid scintillator (Atomlight; PerkinElmer) was counted by TR2500 scintillation counter (PerkinElmer Life & Analytical Sciences). The specific binding was determined as the difference between total and nonspecific binding, measured in the absence and presence of 100 µM 5-HT. Data were analyzed by Scatchard plot to estimate equilibrium constant (Kd) values. For the competition experiments, binding assays were carried out using 0.3 nM [^3H] […] MPPF according to the following equation:
Ki=IC50/1+[radioligand]/Kd (1)
where [radioligand] means the concentration of the radioligand used.

Read-outs that look alike come from different tables or passages of the source.

As a reminder, the Ki is the equilibrium dissociation constant of an inhibitor or competing ligand from its target.

On to `CNC(=O)c1ccc2ccn(C3CCN(CCc4c(OC)ccc5c4OC(C)(C)CC5=O)CC3)c2c1.O=C(O)/C=C/C(=O)O` [E2110, 1-{1-[2-(7-Methoxy-2,2-dimethyl-4-oxochroman-8-yl)ethyl]piperidine-4-yl}-N-methyl-1H-indole-6-carboxamide fumarate], for which the “5-HT1A RO at high doses” value in assay [1] (3 and 10 mg/kg oral, 4 h, both ROIs (MPFC, DRN)) is listed as “full occupancy”. For the same molecule, the EC50 in assay [1] (DRN, dose-response study, 4 h after oral 0.3-10 mg/kg, male SD rats, Emax model, read-out: EC50 (plasma concentration required for 50% 5-HT1A RO) (converted)) is 5.4 nM; in assay [1] (DRN, dose-response study, Emax model, read-out: EC50 (plasma concentration required for 50% 5-HT1A RO) (converted)) it was 4.36 nM; in assay [1] (DRN, dose-response study, EC50 x unbound fraction in plasma, read-out: free concentration-based EC50 for 5-HT1A RO (converted)), 0.32 nM; in assay [1] (DRN, dose-response study, read-out: free concentration-based EC50 for 5-HT1A RO (converted)), 0.264 nM; in assay [1] (DRN, free CNS concentration assumed one-tenth of free plasma, read-out: in vivo EC50 corrected for the difference in free drug concentrations between plasma and CNS) it was 0.032 nM; in assay [1] (MPFC, dose-response study, 4 h after oral 0.3-10 mg/kg, male SD rats, Emax model, read-out: EC50 (plasma concentration required for 50% 5-HT1A RO) (converted)) it was 7.51 nM. For the same molecule, the EC50 in assay [1] (MPFC, dose-response study, Emax model, read-out: EC50 (plasma concentration required for 50% 5-HT1A RO) (converted)) is 6.08 nM; in assay [1] (MPFC, dose-response study, EC50 x unbound fraction in plasma, read-out: free concentration-based EC50 for 5-HT1A RO (converted)), 0.45 nM; in assay [1] (MPFC, dose-response study, read-out: free concentration-based EC50 for 5-HT1A RO (converted)), 0.363 nM; in assay [1] (MPFC, free CNS concentration assumed one-tenth of free plasma, read-out: in vivo EC50 corrected for the difference in free drug concentrations between plasma and CNS), 0.045 nM. Also, the “free concentration-based EC50 relative to in vitro Ki” value in assay [1] (MPFC and DRN, dose-response study) is “approximately 10 fold”. In addition, the “5-HT1A RO, dose dependence” value in assay [1] (single oral doses of 0.3, 1, 3, and 10 mg/kg, each region) was “dose-dependently induced 5-HT1A RO”. Besides, the “minimum dose exerting overt therapeutic effects on the micturition reflex” value in assay [2] (SCL model, oral) was 0.3 mg/kg. Further, in assay [2] (oral 0.3-1 mg/kg, SCL female SD rats, 0.5-1 hour after administration), the “effect on micturition interval” value is listed as “significantly (p < 0.05) prolonged the micturition intervals”. In addition, the Ki in assay [3] came to 0.045 nM.
